Measurements taken from BindingDB's records for doi:10.1021/cb700166z (Albert Einstein College of Medicine, 2007).
Several values for one entry are separate records, joined by “and”; a condition that tells them apart may be missing. Identical values can stand only once.

Key:
Assay in all cases: Enzyme Activity Assay
Settings in all cases: pH 7.5; 25 °C
[1] = target: 5'-methylthioadenosine/S-adenosylhomocysteine nucleosidase (Escherichia coli (strain K12), UniProt P0AF12)
Source text: (§1) Enzyme activity assay using various bacterial species of 5'-Methylthioadenosine nucleosidases (MTANs) excepted for MTAP, for human MTAP.

[2] = target: 5'-methylthioadenosine/S-adenosylhomocysteine nucleosidase (Klebsiella pneumoniae (strain 342), UniProt B5Y1L0)
Sequence of 5'-methylthioadenosine/S-adenosylhomocysteine nucleosidase (Klebsiella pneumoniae (strain 342), UniProt B5Y1L0) (B5Y1L0 whole entry): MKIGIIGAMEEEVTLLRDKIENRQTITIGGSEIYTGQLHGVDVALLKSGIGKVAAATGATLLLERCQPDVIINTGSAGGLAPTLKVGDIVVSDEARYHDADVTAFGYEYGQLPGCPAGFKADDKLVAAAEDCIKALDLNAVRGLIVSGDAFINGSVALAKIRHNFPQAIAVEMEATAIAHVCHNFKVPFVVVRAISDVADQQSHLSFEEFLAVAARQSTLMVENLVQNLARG
Source text: as §1

[3] = target: T1, 5'-methylthioadenosine/S-adenosylhomocysteine nucleosidase (Neisseria meningitidis (strain alpha14), UniProt C6S634)
T1 sequence (C6S634 whole entry): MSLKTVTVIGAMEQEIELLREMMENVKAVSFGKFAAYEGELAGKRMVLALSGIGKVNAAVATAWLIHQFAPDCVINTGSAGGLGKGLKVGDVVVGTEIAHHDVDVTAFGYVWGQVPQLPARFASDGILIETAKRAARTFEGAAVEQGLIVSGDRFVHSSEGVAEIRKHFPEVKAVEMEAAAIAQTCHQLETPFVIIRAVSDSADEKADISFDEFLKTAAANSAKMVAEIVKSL
Source text: as §1

[4] = target: T2, 5'-methylthioadenosine/S-adenosylhomocysteine nucleosidase (Staphylococcus aureus (strain COL), UniProt Q5HFG2)
T2 sequence (Q5HFG2 whole entry): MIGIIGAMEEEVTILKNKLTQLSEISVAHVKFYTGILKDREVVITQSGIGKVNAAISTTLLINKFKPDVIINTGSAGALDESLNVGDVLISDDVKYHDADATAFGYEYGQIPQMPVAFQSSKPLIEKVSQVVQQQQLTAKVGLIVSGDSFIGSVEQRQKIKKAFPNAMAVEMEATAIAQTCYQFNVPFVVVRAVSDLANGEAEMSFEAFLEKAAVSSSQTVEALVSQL
Source text: as §1

[5] = target: T3, Adenosylhomocysteine nucleosidase (Streptococcus pneumoniae (strain ATCC BAA-255 / R6), UniProt Q8DQ16)
T3 sequence (Q8DQ16 whole entry): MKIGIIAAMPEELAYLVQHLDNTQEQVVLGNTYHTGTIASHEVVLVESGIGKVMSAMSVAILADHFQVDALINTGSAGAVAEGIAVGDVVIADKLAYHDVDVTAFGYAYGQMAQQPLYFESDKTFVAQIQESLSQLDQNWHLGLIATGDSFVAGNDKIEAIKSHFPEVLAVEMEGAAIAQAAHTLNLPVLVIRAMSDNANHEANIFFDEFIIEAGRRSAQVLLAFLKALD
Source text: as §1

[6] = target: T4, Aminodeoxyfutalosine nucleosidase (Helicobacter pylori (strain ATCC 700392 / 26695), UniProt O24915)
T4 sequence (O24915 whole entry): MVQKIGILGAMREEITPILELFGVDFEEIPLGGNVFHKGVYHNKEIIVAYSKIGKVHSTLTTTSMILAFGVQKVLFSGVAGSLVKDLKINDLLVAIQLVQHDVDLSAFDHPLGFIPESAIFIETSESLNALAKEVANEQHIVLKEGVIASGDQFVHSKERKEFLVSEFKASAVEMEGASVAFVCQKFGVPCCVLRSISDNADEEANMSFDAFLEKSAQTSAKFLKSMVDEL
Source text: as §1

[7] = target: T5, S-methyl-5'-thioadenosine phosphorylase (Homo sapiens, UniProt Q13126)
T5 sequence (Q13126 whole entry): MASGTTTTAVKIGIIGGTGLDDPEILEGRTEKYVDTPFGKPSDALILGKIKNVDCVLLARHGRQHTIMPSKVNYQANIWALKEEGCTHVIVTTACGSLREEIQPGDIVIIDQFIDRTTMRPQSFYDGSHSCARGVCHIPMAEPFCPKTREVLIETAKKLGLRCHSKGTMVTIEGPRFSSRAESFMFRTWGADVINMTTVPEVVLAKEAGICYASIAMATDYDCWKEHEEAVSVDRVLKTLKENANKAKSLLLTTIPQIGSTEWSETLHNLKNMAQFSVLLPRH
Source text: as §1

Sequence of 5'-methylthioadenosine/S-adenosylhomocysteine nucleosidase (Escherichia coli (strain K12), UniProt P0AF12) (P0AF12 whole entry): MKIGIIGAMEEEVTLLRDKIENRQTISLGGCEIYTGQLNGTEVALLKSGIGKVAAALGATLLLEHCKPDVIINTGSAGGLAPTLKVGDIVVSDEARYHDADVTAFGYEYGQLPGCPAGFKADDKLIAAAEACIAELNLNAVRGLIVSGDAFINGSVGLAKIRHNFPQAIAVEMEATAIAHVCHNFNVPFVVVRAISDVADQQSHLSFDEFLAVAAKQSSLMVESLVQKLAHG

| SMILES | Kd [1] | Kd [2] | Kd [3] | Kd [4] | Kd [5] | Kd [6] | Kd [7] |
| --- | --- | --- | --- | --- | --- | --- | --- |
| Nc1ncnc2c(C3NC(CSc4ccc(Cl)cc4)C(O)C3O)c[nH]c12 (stereo unspecified) | 0.002 nM | 4.1 nM | 0.063 nM | 53 nM | 190 nM | 40 nM | 0.166 nM |
| CCSC[C@H]1CN(Cc2c[nH]c3c(N)ncnc23)C[C@@H]1O [DADMe-ImmA-Et] |  | 2.2 nM | 0.046 nM | 1.3 nM | 10 nM | 0.515 nM |  |
| CSC[C@H]1CN(Cc2c[nH]c3c(N)ncnc23)C[C@@H]1O [DADMe-ImmA-Me] |  | 0.784 nM | 0.14 nM | 1.4 nM | 24 nM | 0.571 nM | 0.086 nM and 0.034 nM |
| Nc1ncnc2c(C3NC(CSCc4ccccc4)C(O)C3O)c[nH]c12 (stereo unspecified) | 0.027 nM | 13 nM | 0.17 nM | 12 nM | 210 nM | 200 nM | 26 nM |
| CCSCC1NC(c2c[nH]c3c(N)ncnc23)C(O)C1O (stereo unspecified) | 0.012 nM | 13 nM | 0.12 nM | 12 nM | 40 nM | 3.4 nM | 0.266 nM |
| Nc1ncnc2c(CN3CC(O)C(CSc4ccc(Cl)cc4)C3)c[nH]c12 (stereo unspecified) [DADMe-ImmA-p-ClPh] |  | 0.5 nM | 0.021 nM | 8 nM | 0.36 nM | 0.57 nM | 0.01 nM |
| CSCC1NC(c2c[nH]c3c(N)ncnc23)C(O)C1O (stereo unspecified) [2-(4-Amino-5H-pyrrolo[3,2-d]pyrimidin-7-yl)-3,4-dihydroxy-5-methylsulfanylmethyl-pyrrolidinium] | 0.077 nM | 45 nM | 0.36 nM | 77 nM | 1000 nM | 1.2 nM | 1 nM |
| Nc1ncnc2c(CN3CC(O)C(CSCc4ccccc4)C3)c[nH]c12 (stereo unspecified) |  | 1.9 nM | 0.024 nM | 0.841 nM | 2.4 nM | 200 nM | 0.7 nM |
